IC50 data for 32 compounds are collected here from US9758505B2, “3-(indol-3-yl)-pyridine derivatives, pharmaceutical compositions and methods for use” (ITEOS THERAPEUTICS, priority 2014, dated 2017).

Assay [1] concerns the target T1, human TDO2 (Homo sapiens (Human), UniProt P48775). The assay is described as follows: Assay for TDO2 enzymatic activity determination. Format: biochemical. Particulars: human recombinant TDO2, L-Trp 1 mM, kynurenine absorbance at 480 nm. The protocol: The compounds of formula I inhibit the enzymatic activity of human TDO2.
To measure the TDO2 activity, the procedure described in Dolusic et al. J. Med. Chem.; 2011, 54, […] was adapted: the reaction mixture contained (final concentrations) potassium phosphate buffer (50 mM, pH 7.5), ascorbic acid (0.25 M), methylene blue (0.125 μM), catalase (40 units/mL, from bovine liver, Sigma), and human recombinant TDO2 enzyme (prepared as described in Dolusic et al. J. Med. Chem.; 2011, 54, 5320-5334; 0.9 μg) without or with the compounds of the present invention at the indicated concentrations (total volume 112.5 μL). The reaction was initiated by the addition of 37.5 μL of L-Trp (final concentration 1 mM) at room temperature. The reaction was conducted at room temperature during one hour and stopped by the addition of 30 μL of 30% (w/v) trichloroacetic acid.
To convert N-formylkynurenine into kynurenine, the reaction mixture was incubated at 65° C. for 30 min. Then 150 μL of the reaction mixture was mixed with 120 μL of 2.5% (w/v) 4-(dimethylamino)-benzaldehyde in acetic acid and incubated for 5 min at room temperature. Kynurenine concentrations were determined by measuring the absorbance at 480 nm. A standard curve was made with pure kynurenine. The TDO activity was measured as described above using ten serial concentrations of the compounds of the present invention. Data were fitted using the Prism™ software (GraphPad Software, Inc.) using standard software configurations.

The target in assay [2] is T1, human TDO2. Nature of the assay: Cellular assay for TDO2 activity, hTDO2-overexpressing P815 cells. The format is cell-based. The conditions noted are these: murine mastocytoma P815 cells overexpressing hTDO2, overnight incubation, kynurenine in supernatant. The protocol: The compounds of Formula I inhibit the activity of human TDO2 in cells.
The assay (adapted from Pilotte L et al., Proc Natl Acad Sci USA, 2012, 109(7), 2497-502) was performed in 96-well flat bottom plates seeded with murine mastocytoma P815 cells overexpressing hTDO2 (prepared as described in Pilotte et al., PNAS, 2012, 109(7), 2497-2502), at a concentration of 5×10^4 cells/well in a final volume of 200 μL. To determine TDO or IDO activity, the cells were incubated overnight at 37° C. at 5% CO2 in IMDM (Invitrogen) supplemented with 2% FBS and 2% penicillin/streptomycin in the presence of the compounds of the present invention, at different concentrations. The cells may be obtained from the American Type Cuylture Collecion [ATCC® TIB-64™ or commercially, e.g., from Sigma-Aldrich or Life Technologies.]
(§1) The plates were then centrifuged 5 min at 1000 rpm, and 100 μL of the supernatant were collected in a conical plate, 30 uL of TCA 30% were added and a further centrifugated at 3000×g for 10 minutes. 100 μL of the supernatant were collected in a flat bottomed plate and 100 μL of 2% (w/v) 4-(dimethylamino)-benzaldehyde in acetic acid and incubated for 5 min at room temperature. Kynurenine concentrations were determined by measuring the absorbance at 480 nm. A standard curve was made with pure kynurenine. The TDO activity was measured as described above using ten serial concentrations of the compounds of the present invention. Data were fitted using the Prism™ software (GraphPad Software, Inc.) using standard software configurations.

The target in assay [3] is T1, human TDO2. Nature of the assay: Cellular assay for TDO2 activity, A172 cells naturally expressing hTDO2. Particulars: human glioblastoma A172 cells, overnight incubation, kynurenine in supernatant. The format is cell-based. The procedure: A172 is a cell line derived from human brain glioblastoma cells.
To determine TDO, the cells were incubated overnight at 37° C. at 5% CO2 in IMDM (Invitrogen) supplemented with 2% FBS and 2% penicillin/streptomycin in the presence of the compounds of the present invention, at different concentrations.
as §1

Counter-ions that a name gives are not always drawn.

T1 sequence (P48775 whole entry): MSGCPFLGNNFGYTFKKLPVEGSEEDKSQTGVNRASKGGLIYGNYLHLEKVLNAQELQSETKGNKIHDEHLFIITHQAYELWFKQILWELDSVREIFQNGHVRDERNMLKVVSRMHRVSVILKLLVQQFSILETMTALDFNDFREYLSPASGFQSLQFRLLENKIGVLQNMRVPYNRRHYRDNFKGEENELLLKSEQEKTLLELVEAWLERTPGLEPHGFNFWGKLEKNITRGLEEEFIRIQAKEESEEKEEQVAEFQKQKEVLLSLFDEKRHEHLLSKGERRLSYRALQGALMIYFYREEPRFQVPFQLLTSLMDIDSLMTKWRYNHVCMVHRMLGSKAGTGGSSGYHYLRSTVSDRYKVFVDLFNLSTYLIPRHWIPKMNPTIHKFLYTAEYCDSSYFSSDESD

What is called IC50 is the concentration that inhibits the measured activity by half. `CS(=O)(=O)NCCNc1ccc(-c2c[nH]c3cc(F)ccc23)cn1` [Example 26, N-(2-(5-(6-fluoro-1H-indol-3-yl)pyridin-2-ylamino)ethyl)methanesulfonamide hydrochloride]: the IC50 at human TDO2 [1] worked out at 710 nM. Still for that read-out and setting: next, `CCN1CCC(Nc2ccc(-c3c[nH]c4cc(F)ccc34)cn2)CC1` [Example 18, N-(1-ethylpiperidin-4-yl)-5-(6-fluoro-1H-indol-3-yl)pyridin-2-amine]: 4800 nM. Consider `Nc1ccc(-c2c[nH]c3cc(F)ccc23)cn1` [Example 15, 5-(6-fluoro-1H-indol-3-yl)pyridin-2-amine], for which the values for the half-inhibitory concentration (IC50) against human TDO2 [2] and on human TDO2 [1] were 130 nM and 1100 nM, respectively.

As to `COc1ccc(-c2c[nH]c3cc(F)ccc23)cn1` [Example 5, 6-fluoro-3-(6-methoxypyridin-3-yl)-1H-indole], the IC50 at human TDO2 [2] is 120 nM; on human TDO2 [1], 730 nM. Take `O=C1NCCN1c1ccc(-c2c[nH]c3cc(F)ccc23)cn1` [Example 78, 1-(5-(6-fluoro-1H-indol-3-yl)pyridin-2-yl)imidazolidin-2-one]: the values for the 50% inhibitory concentration (IC50) at human TDO2 [3] and on human TDO2 [1] were 490 nM and 16000 nM, respectively. As for `CN(C)c1ccc(-c2c[nH]c3cc(F)ccc23)cn1` [Example 7, 5-(6-fluoro-1H-indol-3-yl)-N,N-dimethylpyridin-2-amine], the IC50 on human TDO2 [2] is 320 nM; on human TDO2 [1], 380 nM. Take `CN1CCC(Oc2ccc(-c3c[nH]c4cc(F)ccc34)cn2)CC1` [Example 3, 6-fluoro-3-(6-(1-methylpiperidin-4-yloxy)pyridin-3-yl)-1H-indole]: on human TDO2 [1], the 50% inhibitory concentration (IC50) stood at 1200 nM. In the case of `CC(=O)NCCCNc1ccc(-c2c[nH]c3cc(F)ccc23)cn1` [Example 20, N-(3-(5-(6-fluoro-1H-indol-3-yl)pyridin-2-ylamino)propyl)acetamide], the IC50 at human TDO2 [1] was 870 nM.

With `NC(=O)CNc1ccc(-c2c[nH]c3cc(F)ccc23)cn1` [Example 31, 2-(5-(6-fluoro-1H-indol-3-yl)pyridin-2-ylamino)acetamide], the values for the IC50 against human TDO2 [2] and on human TDO2 [1] were 120 nM and 790 nM, respectively.

Consider `Fc1cc2[nH]cc(-c3cccnc3)c2cc1F` [Example 47, 5,6-difluoro-3-(pyridin-3-yl)-1H-indole], for which the figures for the IC50 against human TDO2 [2] and on human TDO2 [1] were 240 nM and 2800 nM, respectively.

In the case of `Cc1ccc(-c2c[nH]c3cc(F)ccc23)cn1` [Example 1, 6-fluoro-3-(6-methylpyridin-3-yl)-1H-indole], the IC50 against human TDO2 [2] amounted to 180 nM; on human TDO2 [1], 370 nM. `CN(c1ccc(-c2c[nH]c3cc(F)ccc23)cn1)S(C)(=O)=O` [Example 54, N-(5-(6-fluoro-1H-indol-3-yl)pyridin-2-yl)-N-methylmethanesulfonamide]: the half-maximal inhibitory concentration (IC50) against human TDO2 [2] stood at 160 nM; against human TDO2 [3], 420 nM. Take `[O-][n+]1cccc(-c2c[nH]c3cc(F)ccc23)c1` [Example 49, 3-(6-fluoro-1H-indol-3-yl)pyridine 1-oxide]: the IC50 on human TDO2 [1] stood at 11000 nM. Consider `NS(=O)(=O)CCCNc1ccc(-c2c[nH]c3cc(F)ccc23)cn1` [Example 23, 3-((5-(6-fluoro-1H-indol-3-yl)pyridin-2-yl)amino)propane-1-sulfonamide], for which the IC50 is 430 nM against human TDO2 [2] and 490 nM on human TDO2 [3].

On to `NCC(=O)N1CCN(c2ccc(-c3c[nH]c4cc(F)ccc34)cn2)CC1` [Example 11, 2-amino-1-(4-(5-(6-fluoro-1H-indol-3-yl)pyridin-2-yl)piperazin-1-yl)ethanone], for which the IC50 at human TDO2 [2] and at human TDO2 [1] was 650 nM throughout.

Take `CN(C)CCNc1ccc(-c2c[nH]c3cc(F)ccc23)cn1` [Example 25, N^1-(5-(6-fluoro-1H-indol-3-yl)pyridin-2-yl)-N^2,N^2-dimethylethane-1,2-diamine]: the values for the IC50 against human TDO2 [2] and on human TDO2 [1] were 140 nM and 540 nM, respectively. With `CS(=O)(=O)N1CCC(Nc2ccc(-c3c[nH]c4cc(F)ccc34)cn2)CC1` [Example 19, 5-(6-fluoro-1H-indol-3-yl)-N-(1-(methylsulfonyl)piperidin-4-yl)pyridin-2-amine], the IC50 on human TDO2 [1] came to 650 nM. For the compound `CS(=O)(=O)N1CCC(Oc2ccc(-c3c[nH]c4cc(F)ccc34)cn2)CC1` [Example 6, 6-fluoro-3-(6-(1-(methylsulfonyl)piperidin-4-yloxy)pyridin-3-yl)-1H-indole], the IC50 on human TDO2 [1] is 1300 nM. As for `Cc1cncc(-c2c[nH]c3cc(F)ccc23)c1` [Example 48, 6-fluoro-3-(5-methylpyridin-3-yl)-1H-indole], the IC50 came out at 620 nM on human TDO2 [2] and 4500 nM on human TDO2 [1]. For `CS(=O)(=O)NCCCNc1ccc(-c2c[nH]c3cc(F)ccc23)cn1` [Example 21, N-(3-(5-(6-fluoro-1H-indol-3-yl)pyridin-2-ylamino)propyl)methanesulfonamide] the same measures were 350 nM and 620 nM. Consider `Fc1ccc2c(-c3ccc(N4CCOCC4)nc3)c[nH]c2c1` [Example 9, 4-(5-(6-fluoro-1H-indol-3-yl)pyridin-2-yl)morpholine], for which the IC50 against human TDO2 [2] came out at 210 nM; at human TDO2 [1] it was 540 nM.

Take `O=C(O)CNc1ccc(-c2c[nH]c3cc(F)ccc23)cn1` [Example 30, 2-(5-(6-fluoro-1H-indol-3-yl)pyridin-2-ylamino)acetic acid]: the concentration for half-maximal inhibition (IC50) against human TDO2 [2] amounted to 1500 nM; on human TDO2 [1], 1600 nM.

As for `Nc1ccc(-c2c[nH]c3cc(F)c(F)cc23)cn1` [Example 16, 5-(5,6-difluoro-1H-indol-3-yl)pyridin-2-amine], the IC50 on human TDO2 [1] was 1600 nM.

Turning to `Fc1ccc2c(-c3ccc(OC4CCNCC4)nc3)c[nH]c2c1` [Example 2, 6-fluoro-3-(6-(piperidin-4-yloxy)pyridin-3-yl)-1H-indole], the IC50 on human TDO2 [1] came to 560 nM. Turning to `NCC(=O)NC1CCN(c2ccc(-c3c[nH]c4cc(F)ccc34)cn2)CC1` [Example 13, 2-amino-N-(1-(5-(6-fluoro-1H-indol-3-yl)pyridin-2-yl)piperidin-4-yl)acetamide], the IC50 against human TDO2 [2] was found to be 550 nM; on human TDO2 [1] it was 1700 nM. For `CS(=O)(=O)CCCNc1ccc(-c2c[nH]c3cc(F)ccc23)cn1` [Example 22, 5-(6-fluoro-1H-indol-3-yl)-N-(3-(methylsulfonyl)propyl)pyridin-2-amine], in that order: 400 nM and 1200 nM. On to `Cc1ncccc1-c1c[nH]c2cc(F)ccc12` [Example 45, 6-fluoro-3-(2-methylpyridin-3-yl)-1H-indole], for which the figures for the concentration for half-maximal inhibition (IC50) on human TDO2 [2] and on human TDO2 [1] were 220 nM and 860 nM, respectively. Take `O=c1ccc(-c2c[nH]c3cc(F)ccc23)c[nH]1` [Example 69, 5-(6-fluoro-1H-indol-3-yl)pyridin-2(1H)-one]: the results for the IC50 at human TDO2 [2] and against human TDO2 [3] were 260 nM and 370 nM, respectively.

With `Fc1ccc2c(-c3ccc(NC4CCNCC4)nc3)c[nH]c2c1` [Example 17, 5-(6-fluoro-1H-indol-3-yl)-N-(piperidin-4-yl)pyridin-2-amine], the figures for the half-maximal inhibitory concentration (IC50) at human TDO2 [2] and at human TDO2 [1] were 1300 nM and 870 nM, respectively. For `CS(=O)(=O)CCNc1ccc(-c2c[nH]c3cc(F)ccc23)cn1` [Example 28, 5-(6-fluoro-1H-indol-3-yl)-N-(2-(methylsulfonyl)ethyl)pyridin-2-amine] the same measures were 1000 nM and 1500 nM. For `OCCNc1ccc(-c2c[nH]c3cc(F)ccc23)cn1` [Example 27, 2-(5-(6-fluoro-1H-indol-3-yl)pyridin-2-ylamino)ethanol] the same measures were 190 nM and 490 nM. As for `CN(C)CCS(=O)(=O)NC1CCN(c2ccc(-c3c[nH]c4cc(F)ccc34)cn2)CC1` [Example 56, 2-(dimethylamino)-N-(1-(5-(6-fluoro-1H-indol-3-yl)pyridin-2-yl)piperidin-4-yl)ethanesulfonamide], the results for the IC50 at human TDO2 [2] and against human TDO2 [3] were 240 nM and 640 nM, respectively.
